Patent EP3057951B1, “METHYLENE LINKED QUINOLINYL MODULATORS OF ROR-GAMMA-T” (Janssen Pharmaceutica NV, priority 2013, dated 2015)

Biological target: T1, wild type human RORγt ligand binding domain (RORyt LBD) (Homo sapiens, UniProt P51449)
T1 construct: His-tag (N); TurboTEV protease cleavage site (ENLYFQG) (N); made in house; host or cells: E. coli (pHIS1, modified pET vector)
T1 sequence (P51449 258-518): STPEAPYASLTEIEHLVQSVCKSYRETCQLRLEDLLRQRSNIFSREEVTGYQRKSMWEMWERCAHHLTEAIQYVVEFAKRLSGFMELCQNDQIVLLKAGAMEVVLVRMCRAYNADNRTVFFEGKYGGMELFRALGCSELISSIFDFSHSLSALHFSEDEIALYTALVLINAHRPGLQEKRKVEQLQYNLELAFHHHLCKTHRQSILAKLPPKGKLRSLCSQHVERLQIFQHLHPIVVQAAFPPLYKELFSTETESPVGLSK
Test: RORγt ThermoFluor assay (thermal shift, binding affinity KD)

| Kd | SMILES |
| --- | --- |
| 0.73 nM | CCc1nc2ccc(C(O)(c3cnnn3C)C3CN(C(C)=O)C3)cc2c(C#N)c1Cc1ccc(C(F)(F)F)cc1 (single isomer, unassigned) [Example 36, 6-((1-Acetylazetidin-3-yl)(hydroxy)(1-methyl-1H-1,2,3-triazol-5-yl)methyl)-2-ethyl-3-(4-(trifluoromethyl)benzyl)quinoline-4-carbonitrile] |
| 1.9 nM | CCc1nc2ccc(C(O)(c3cnnn3C)C3CN(C(C)=O)C3)cc2c(C#N)c1Cc1ccc(C(F)(F)F)cc1 (single isomer, unassigned) [Example 37, 6-((1-Acetylazetidin-3-yl)(hydroxy)(1-methyl-1H-1,2,3-triazol-5-yl)methyl)-2-ethyl-3-(4-(trifluoromethyl)benzyl)quinoline4-carbonitrile] |
| 970 nM | COc1nc2ccc(C(O)(c3ccc(C)nc3C)c3cnc(C)n3C)cc2c(Cl)c1Cc1ccc(C(F)(F)F)nc1 (single isomer, unassigned) [Example 42b, (4-Chloro-2-methoxy-3-((6-(trifluoromethyl)pyridin-3-yl)methyl)quinolin-6-yl)(1,2-dimethyl-1H-imidazol-5-yl)(2,6-dimethylpyridin-3-yl)methanol] |
| 0.18 nM | COc1nc2ccc(C(O)(c3ccc(C)nc3C)c3cnc(C)n3C)cc2c(Cl)c1Cc1ccc(C(F)(F)F)nc1 (single isomer, unassigned) [Example 42c, (4-Chloro-2-methoxy-3-((6-(trifluoromethyl)pyridin-3-yl)methyl)quinolin-6-yl)(1,2-dimethyl-1H-imidazol-5-yl)(2,6-dimethylpyridin-3-yl)methanol] |
| 180 nM | COc1nc2ccc(C(O)(c3ccc(C)nc3C)c3cnc(C)n3C)cc2c(Cl)c1Cc1ccc(C(F)(F)F)cc1 (single isomer, unassigned) [Example 57b, (4-Chloro-2-methoxy-3-(4-(trifluoromethyl)benzyl)quinolin-6-yl)(1,2-dimethyl-1H-imidazol-5-yl)(2,6-dimethylpyridin-3-yl)methanol] |
| 0.02 nM | COc1nc2ccc(C(O)(c3ccc(C)nc3C)c3cnc(C)n3C)cc2c(Cl)c1Cc1ccc(C(F)(F)F)cc1 (single isomer, unassigned) [Example 57c, (4-Chloro-2-methoxy-3-(4-(trifluoromethyl)benzyl)quinolin-6-yl)(1,2-dimethyl-1H-imidazol-5-yl)(2,6-dimethylpyridin-3-yl)methanol] |
| 3600 nM | COc1nc2ccc(C(O)(c3ccccn3)c3cncn3C)cc2c(Cl)c1Cc1ccc(S(C)(=O)=O)cc1 (single isomer, unassigned) [Example 58b, (4-Chloro-2-methoxy-3-(4-(methylsulfonyl)benzyl)quinolin-6-yl)(1-methyl-1H-imidazol-5-yl)(pyridin-2-yl)methanol] |
| 370 nM | COc1nc2ccc(C(O)(c3ccccn3)c3cncn3C)cc2c(Cl)c1Cc1ccc(S(C)(=O)=O)cc1 (single isomer, unassigned) [Example 58c, (4-Chloro-2-methoxy-3-(4-(methylsulfonyl)benzyl)quinolin-6-yl)(1-methyl-1H-imidazol-5-yl)(pyridin-2-yl)methanol] |
| 34 nM | COc1nc2ccc(C(O)(c3ccccn3)c3cncn3C)cc2c(Cl)c1Cc1cc2ccccc2s1 (single isomer, unassigned) [Example 59b, (3-(Benzo[b]thiophen-2-ylmethyl)-4-chloro-2-methoxyquinolin-6-yl)(1-methyl-1H-imidazol-5-yl)(pyridin-2-yl)methanol] |
| 800 nM | COc1nc2ccc(C(O)(c3ccccn3)c3cncn3C)cc2c(Cl)c1Cc1cc2ccccc2s1 (single isomer, unassigned) [Example 59c, (3-(Benzo[b]thiophen-2-ylmethyl)-4-chloro-2-methoxyquinolin-6-yl)(1-methyl-1H-imidazol-5-yl)(pyridin-2-yl)methanol] |
